Reference: US20220227789A1, “NOVEL INDOLIZINE-2-CARBOXAMIDES ACTIVE AGAINST THE HEPATITIS B VIRUS (HBV)” (AiCuris GmbH & Co. KG, priority 2019, published 2022)
Where two headings read alike, the source gives them in different places.

Tests used:
HBV = HBV replication assay: HBV DNA from the supernatants of HepAD38 cells; assay type: cell-based; details: Hepatitis B virus, 144 h, HBV DNA in supernatant by qPCR at day 6, read-out: Cell Activity
Protocol: Determination of HBV DNA from the Supernatants of HepAD38 Cells
The anti-HBV activity was analysed in the stable transfected cell line HepAD38, which has been described to secrete high levels of HBV virion particles (Ladner et al., 1997). In brief, HepAD38 cells were cultured at 37° C. at 5% CO2 and 95% humidity in 200 μl maintenance medium, which was Dulbecco's modified Eagle's medium/Nutrient Mixture F-12 (Gibco, Karlsruhe), 10% fetal bovine serum (PAN Biotech Aidenbach) supplemented with 50 μg/ml penicillin/streptomycin (Gibco, Karlsruhe), 2 mM L-glutamine (PAN Biotech, Aidenbach), 400 μg/ml G418 (AppliChem, Darmstadt) and 0.3 μg/ml tetracycline. Cells were subcultured once a week in a 1:5 ratio, but were usually not passaged more than ten times. For the assay 60,000 cells were seeded in maintenance medium without any tetracycline into each well of a 96-well plate and treated with serial half-log dilutions of test compound. To minimize edge effects the outer 36 wells of the plate were not used but were filled with assay medium. On each assay plate six wells for the virus control (untreated HepAD38 cells) and six wells for the cell control (HepAD38 cells treated with 0.3 μg/ml tetracycline) were allocated, respectively. In addition, one plate set with reference inhibitors like BAY 41-4109, entecavir, and lamivudine instead of screening compounds were prepared in each experiment. In general, experiments were performed thrice in triplicates. At day 6 HBV DNA from 100 μl filtrated cell culture supernatant (AcroPrep Advance 96 Filter Plate, […] Supor membran, PALL GmbH, Dreieich) was automatically purified on the MagNa Pure LC instrument using the MagNA Pure 96 DNA and Viral NA Small Volume Kit (Roche Diagnostics, Mannheim) according to the instructions of the manufacturer. EC50 values were calculated from relative copy numbers of HBV DNA In brief, 5 μl of the 100 μl eluate containing HBV DNA were subjected to PCR LC480 Probes Master Kit (Roche) together with 1 μM antisense primer […], 0.5 μM sense primer […], 0.3 μM hybprobes […]-FL and LC640-[…]-PH (TIBMolBiol, Berlin) to a final volume of […]. The PCR was performed on the Light Cycler 480 real time system (Roche Diagnostics, Mannheim) using the following protocol: Pre-incubation for 1 min at 95° C., amplification: 40 cycles×(10 sec at 95° C., 50 sec at 60° C., 1 sec at 70° C.), cooling for 10 sec at 40° C. Viral load was quantitated against known standards using HBV plasmid DNA of pCH-9/3091 (Nassal et al., 1990, Cell 63: 1357-1363) and the LightCycler 480 SW 1.5 software (Roche Diagnostics, Mannheim) and EC50 values were calculated using non-linear regression with GraphPad Prism 6 (GraphPad Software Inc., La Jolla, USA).

[1] = target: T1, HBV core protein (C-terminal truncated, 149 aa assembly domain) (Hepatitis B virus genotype D subtype adw, UniProt P03147, C107A/C48A/C61A); test: Biochemical capsid assembly assay (fluorescence quenching)
T1 construct: The C-terminal truncated core protein containing 149 amino acids of the N-terminal assembly domain; made in house; host or cells: E. coli BL21 (DE3) Rosetta2, plasmid pET21b
Protocol: Biochemical Capsid Assembly Assay
The screening for assembly effector activity was done based on a fluorescence quenching assay published by Zlotnick et al. (2007). The C-terminal truncated core protein containing 149 amino acids of the N-terminal assembly domain fused to a unique cysteine residue at position 150 and was expressed in E. coli using the pET expression system (Merck Chemicals, Darmstadt). Purification of core dimer protein was performed using a sequence of size exclusion chromatography steps. In brief, the cell pellet from 1 L BL21 (DE3) Rosetta2 culture expressing the coding sequence of core protein cloned NdeI/XhoI into expression plasmid pET21b was treated for 1 h on ice with a native lysis buffer (Qproteome Bacterial Protein Prep Kit; Qiagen, Hilden). After a centrifugation step the supernatant was precipitated during 2 h stirring on ice with 0.23 g/ml of solid ammonium sulfate. Following further centrifugation the resulting pellet was resolved in buffer A (100 mM Tris, pH 7.5; 100 mM NaCl; 2 mM DTT) and was subsequently loaded onto a buffer A equilibrated CaptoCore 700 column (GE HealthCare, Frankfurt). The column flow through containing the assembled HBV capsid was dialyzed against buffer N (50 mM NaHCO3 pH 9.6; 5 mM DTT) before urea was added to a final concentration of 3M to dissociate the capsid into core dimers for 1.5 h on ice. The protein solution was then loaded onto a 1 L Sephacryl 5300 column. After elution with buffer N core dimer containing fractions were identified by SDS-PAGE and subsequently pooled and dialyzed against 50 mM HEPES pH 7.5; 5 mM DTT. To improve the assembly capacity of the purified core dimers a second round of assembly and disassembly starting with the addition of 5 M NaCl and including the size exclusion chromatography steps described above was performed. From the last chromatography step core dimer containing fractions were pooled and stored in aliquots at concentrations between 1.5 to 2.0 mg/ml at −80° C.
Immediately before labelling the core protein was reduced by adding freshly prepared DTT in a final concentration of 20 mM. After […] on ice storage buffer and DTT was removed using a Sephadex G-25 column (GE HealthCare, Frankfurt) and 50 mM HEPES, pH 7.5. For labelling 1.6 mg/ml core protein was incubated at 4° C. and darkness overnight with BODIPY-FL maleimide (Invitrogen, Karlsruhe) in a final concentration of 1 mM. After labelling the free dye was removed by an additional desalting step using a Sephadex G-25 column. Labelled core dimers were stored in aliquots at 4° C. In the dimeric state the fluorescence signal of the labelled core protein is high and is quenched during the assembly of the core dimers to high molecular capsid structures. The screening assay was performed in black 384 well microtiter plates in a total assay volume of 10 μl using 50 mM HEPES pH 7.5 and 1.0 to 2.0 μM labelled core protein. Each screening compound was added in 8 different concentrations using a 0.5 log-unit serial dilution starting at a final concentration of 100 μM, 31.6 μM or 10 μM, In any case the DMSO concentration over the entire microtiter plate was 0.5%. The assembly reaction was started by the injection of NaCl to a final concentration of […] which induces the assembly process to approximately 25% of the maximal quenched signal. 6 min after starting the reaction the fluorescence signal was measured using a Clariostar plate reader (BMG Labtech, Ortenberg) with an excitation of 477 nm and an emission of 525 nm. As 100% and 0% assembly control HEPES buffer containing 2.5 M and 0 M NaCl was used. Experiments were performed thrice in triplicates. EC50 values were calculated by non-linear regression analysis using the Graph Pad Prism 6 software (GraphPad Software, La Jolla, USA).

[2] = BODIPY-FL labelled core protein, assembly started with NaCl, read after 6 min, read-out: Assembly Activity

T1 sequence (P03147 1-150, looked up, stated change not applied): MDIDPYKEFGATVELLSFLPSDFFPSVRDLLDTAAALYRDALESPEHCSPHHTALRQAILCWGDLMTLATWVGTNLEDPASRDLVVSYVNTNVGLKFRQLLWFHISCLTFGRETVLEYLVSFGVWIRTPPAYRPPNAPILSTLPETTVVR

SMILES | IC50 [1, 2] | also measured
O=C(c1cc2c(Cl)cccn2c1)N1CCc2n[nH]c(C(=O)N3CC(F)(F)CC34CC4)c2C1 [Example 1, 8-chloro-2-(3-{6,6-difluoro-4-azaspiro[2.4]heptane-4-carbonyl}-2H,4H,5H,6H,7H-pyrazolo[4,3-c]pyridine-5-carbonyl)indolizine] | – | EC50 (HBV): 1 to 10 µM
O=C(c1cc2c(F)cc(F)cn2c1)N1CCc2n[nH]c(C(=O)N3CC(F)(F)CC34CC4)c2C1 [Example 2, 6,8-difluoro-2-(3-{6,6-difluoro-4-azaspiro[2.4]heptane-4-carbonyl}-2H,4H,5H,6H,7H-pyrazolo[4,3-c]pyridine-5-carbonyl)indolizine] | – | EC50 (HBV): 1 to 10 µM
CC1Cc2[nH]nc(-c3cscn3)c2CN1C(=O)c1cn2ccccc2c1Br (stereo not shown) [Example 11, 1-bromo-2-[6-methyl-3-(1,3-thiazol-4-yl)-1H,4H,5H,6H,7H-pyrazolo[4,3-c]pyridine-5-carbonyl]indolizine] | – | EC50 (HBV): 1 to 10 µM
O=C(c1cc2ccccn2c1)N1CCc2[nH]nc(-n3ccnn3)c2C1 [Example 28, 2-[3-(1H-1,2,3-triazol-1-yl)-1H,4H,5H,6H,7H-pyrazolo[4,3-c]pyridine-5-carbonyl]indolizine] | < 100 µM | –
O=C(NCC1CCCO1)c1[nH]nc2c1CN(C(=O)c1cc3ccccn3c1)CC2 (stereo not shown) [Example 29, 5-(indolizine-2-carbonyl)-N-[(oxolan-2-yl)methyl]-2H,4H,5H,6H,7H-pyrazolo[4,3-c]pyridine-3-carboxamide] | < 100 µM | –
O=C(NCC1CCCOC1)c1[nH]nc2c1CN(C(=O)c1cc3ccccn3c1)CC2 (stereo not shown) [Example 30, 5-(indolizine-2-carbonyl)-N-[(oxan-3-yl)methyl]-2H,4H,5H,6H,7H-pyrazolo[4,3-c]pyridine-3-carboxamide] | < 100 µM | –
O=C(c1cc2ccccn2c1)N1CCc2[nH]nc(-c3ccon3)c2C1 [Example 31, 2-[3-(1,2-oxazol-3-yl)-1H,4H,5H,6H,7H-pyrazolo[4,3-c]pyridine-5-carbonyl]indolizine] | < 5 µM | –
O=C(NC1(C(F)(F)F)CC1)c1[nH]nc2c1CN(C(=O)c1cc3ccccn3c1)CC2 [Example 33, 5-(indolizine-2-carbonyl)-N-[1-(trifluoromethyl)cyclopropyl]-2H,4H,5H,6H,7H-pyrazolo[4,3-c]pyridine-3-carboxamide] | < 100 µM | –
O=C(c1cc2ccccn2c1)N1CCc2noc(-c3cscn3)c2C1 [Example 34, 2-[3-(1,3-thiazol-4-yl)-4H,5H,6H,7H-[1,2]oxazolo[4,3-c]pyridine-5-carbonyl]indolizine] | < 5 µM | –
CC(C)(NC(=O)c1[nH]nc2c1CN(C(=O)c1cc3ccccn3c1)CC2)C(F)(F)F [Example 35, 5-(indolizine-2-carbonyl)-N-(1,1,1-trifluoro-2-methylpropan-2-yl)-2H,4H,5H,6H,7H-pyrazolo[4,3-c]pyridine-3-carboxamide] | < 100 µM | –
O=C(c1cc2ccccn2c1)N1CCc2onc(-c3cscn3)c2C1 [Example 36, 2-[3-(1,3-thiazol-4-yl)-4H,5H,6H,7H-[1,2]oxazolo[4,5-c]pyridine-5-carbonyl]indolizine] | – | IC50 [1]: < 5 µM
O=C(c1cc2ccccn2c1)N1CCc2[nH]nc(-c3cscn3)c2C1 [Example 37, 2-[3-(1,3-thiazol-4-yl)-1H,4H,5H,6H,7H-pyrazolo[4,3-c]pyridine-5-carbonyl]indolizine] | < 5 µM | –
CC(NC(=O)c1[nH]nc2c1CN(C(=O)c1cc3ccccn3c1)CC2)C1COC1 (stereo not shown) [Example 41, 5-(indolizine-2-carbonyl)-N-[1-(oxetan-3-yl)ethyl]-2H,4H,5H,6H,7H-pyrazolo[4,3-c]pyridine-3-carboxamide] | < 100 µM | –
O=C(c1cc2ccccn2c1)N1CCn2ncc(-c3cscn3)c2C1 [Example 43, 2-[3-(1,3-thiazol-4-yl)-4H,5H,6H,7H-pyrazolo[1,5-a]pyrazine-5-carbonyl]indolizine] | < 5 µM | –
CC1Cc2[nH]nc(-c3cscn3)c2CN1C(=O)c1cc2c(F)cc(F)cn2c1 (stereo not shown) [Example 44, 6,8-difluoro-2-[6-methyl-3-(1,3-thiazol-4-yl)-1H,4H,5H,6H,7H-pyrazolo[4,3-c]pyridine-5-carbonyl]indolizine] | < 5 µM | –
C[C@H](NC(=O)c1[nH]nc2c1CN(C(=O)c1cc3ccccn3c1)CC2)C(F)(F)F [Example 45, 5-(indolizine-2-carbonyl)-N-[(2S)-1,1,1-trifluoropropan-2-yl]-2H,4H,5H,6H,7H-pyrazolo[4,3-c]pyridine-3-carboxamide] | < 100 µM | –
C[C@@H](NC(=O)c1[nH]nc2c1CN(C(=O)c1cc3ccccn3c1)CC2)C(F)(F)F [Example 46, 5-(indolizine-2-carbonyl)-N-[(2R)-1,1,1-trifluoropropan-2-yl]-2H,4H,5H,6H,7H-pyrazolo[4,3-c]pyridine-3-carboxamide] | < 100 µM | –
CC1Cc2n[nH]c(C(=O)NC(C)C(F)(F)F)c2CN1C(=O)c1cc2c(Cl)cccn2c1 (stereo not shown) [Example 47, 5-(8-chloroindolizine-2-carbonyl)-6-methyl-N-(1,1,1-trifluoropropan-2-yl)-2H,4H,5H,6H,7H-pyrazolo[4,3-c]pyridine-3-carboxamide] | < 100 µM | –
CC1Cc2n[nH]c(C(=O)NC(C)C(F)(F)F)c2CN1C(=O)c1cc2ccccn2c1 (stereo not shown) [Example 48, 5-(indolizine-2-carbonyl)-6-methyl-N-(1,1,1-trifluoropropan-2-yl)-2H,4H,5H,6H,7H-pyrazolo[4,3-c]pyridine-3-carboxamide] | < 100 µM | –
